Data reported in patent US9000154B2, “Rho kinase inhibitors” (Boehringer Ingelheim International GmbH, priority 2010, dated 2015).

Tests used:
ROCKII (1-543) [1] = molecular target: T1, ROCKII (1-543) (Homo sapiens, UniProt O75116); experiment: IMAP Assay (fluorescence polarization, FAM S6 peptide); type: biochemical; parameters: 3 nM ROCKII (1-543) diluted in kinase reaction buffer; details: IMAP FP, 1 nM ROCKII (1-543), 100 μM ATP; read-out: Assay 2 IC50
Method: This assay is performed using FAM S6 substrate peptide (Catalogue #R7184) and IMAP FP Screening Express Kit detection reagents from Molecular Devices (Sunnyvale, Calif.) in IMAP kinase reaction buffer (Tris-HCl, pH 7.2, 10 mM MgCl2, 0.05% NaN3, 0.1% phosphate-free BSA) containing 1 mM DTT. Test compounds dissolved in neat DMSO at 0.3 mg/mL are serially diluted 1 to 3 for concentration response in 100% DMSO. The DMSO serial dilutions are further diluted 33.33-fold in kinase reaction buffer, and 10 μL of this buffer dilution is transferred to Corning black 96-well half area NBS plates for a final top concentration of 3 μg/mL in 1% DMSO. 10 μL aliquot of 3 nM ROCKII (1-543) diluted in kinase reaction buffer is added to each assay well for a final concentration of 1 nM kinase. 10 μL of a mixture of 600 nM FAM S6 peptide and 300 μM ATP diluted in kinase reaction buffer is added to each well for a final concentration of 200 nM peptide and 100 μM ATP. The kinase reaction mixture is incubated for 60 minutes at room temperature. Positive controls are reaction mixtures containing no test compound and negative controls (blanks) are reaction mixtures containing no kinase. The kinase reaction is stopped by addition of 60 μL IMAP progressive binding reagent (Catalog #R7284) diluted 400-fold in 1× Binding buffer A. After 30 min of incubation at room temperature, the plates are read for fluorescence polarization on Analyst Plate Reader using Ex 485 nm, Em 530 nm, and FL 505 dichroic mirror. The mP signals are converted to percent of control (POC) values using the formula: POC=100*(Signal−BCTRL)÷(PCTRL−BCTRL)
Where Signal is the test well signal, BCTRL is the average of background (negative control) well signals on the plate and PCTRL is the average of positive control well signals on the plate. For the concentration-responsive compounds, POC as a function of test compound concentration is fitted to a 4-parameter logistic equation of the form: Y=A+(B−A)/[1+(x/C)D]
Where A, B, C, and D are fitted parameters (parameter B is fixed at zero POC), and x and y are the independent and dependent variables, respectively. The IC50 is determined as the inflection point parameter, C.
Target sequence in this assay (O75116 1-543, species assumed): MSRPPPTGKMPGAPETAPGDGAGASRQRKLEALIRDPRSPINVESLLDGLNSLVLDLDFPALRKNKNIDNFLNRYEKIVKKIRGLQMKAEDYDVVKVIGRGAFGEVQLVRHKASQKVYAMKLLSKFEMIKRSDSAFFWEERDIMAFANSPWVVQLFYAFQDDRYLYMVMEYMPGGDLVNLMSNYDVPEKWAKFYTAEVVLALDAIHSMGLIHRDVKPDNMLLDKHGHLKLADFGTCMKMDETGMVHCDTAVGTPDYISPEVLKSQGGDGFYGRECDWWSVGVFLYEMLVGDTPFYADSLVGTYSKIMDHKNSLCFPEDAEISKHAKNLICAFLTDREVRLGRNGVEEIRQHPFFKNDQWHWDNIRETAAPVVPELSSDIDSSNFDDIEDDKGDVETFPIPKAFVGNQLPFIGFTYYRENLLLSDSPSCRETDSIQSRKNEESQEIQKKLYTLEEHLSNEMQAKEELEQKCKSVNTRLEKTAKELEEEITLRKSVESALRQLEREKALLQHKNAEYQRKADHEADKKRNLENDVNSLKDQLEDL

ROCKII (1-543) [2] = molecular target: T1, ROCKII (1-543); experiment: Luciferin-Luciferase Assay (PKLight ATP detection); type: biochemical; parameters: ROCKII (1-543) (62,408 Da) was diluted in assay buffer; details: 7.5 nM ROCKII (1-543), 750 nM ATP
Method: 1. Luciferin-Luciferase Assay
The activity of ROCKII (1-543) kinase was measured utilizing Cambrex PKLight ATP Detection Reagent, a homogeneous assay technology using luciferin-luciferase to quantify residual ATP. The assay was performed in 384-well low-volume, white, non-binding surface microtiter plates (Corning). The assay buffer was 25 mM HEPES, pH 7.5, 10 mM MgCl2, 50 mM KCl, 0.2% BSA, 0.01% CHAPS, 100 μM Na3VO4 and 0.5 mM DTT. Test compounds, dissolved in neat DMSO at 500 μg/mL, were serially diluted for dose response for a final starting concentration of 3 μg/mL in 1% DMSO of assay buffer. ROCKII (1-543) (62,408 Da) was diluted in assay buffer to a final concentration of 7.5 nM in a total volume of 15 μL. Positive controls were reaction mixtures containing no test compound; negative controls (blanks) were reaction mixtures containing no kinase. After 15 minutes of pre-incubation of the test compounds with the kinase, a mixture of ATP and peptide substrate (AKRRRLSSLRA) in assay buffer was added to each well for a final concentration of 750 nM ATP and 500 nM peptide, respectively. After 90 minutes of incubation of the kinase reaction at 28° C. temperature, 10 μL of PKLight ATP Detection Reagent (warmed to room temperature previously) was added to each well. The assay plate was incubated at room temperature for additional 15 minutes and then read on an Analyst in luminescence mode. Dose-response experiments for each of the test compounds were conducted in quadruplet. IC50 values of test compounds represent 50% response of the positive control from the dose-response curve.
Target sequence in this assay (O75116 1-543): as the sequence (O75116 1-543, species assumed) above

SMILES | IC50 (ROCKII (1-543) [1]) [nM] | IC50 (ROCKII (1-543) [2]) [nM]
N#Cc1ccc(-c2nnc(Cc3cccc(C(=O)Nc4nc5c(s4)C[C@@H](N4CCOCC4)CC5)c3)o2)cc1 [Compound 40, 3-[5-(4-Cyano-phenyl)-1,3,4-oxadiazol-2-ylmethyl]-N—((S)-6-morpholin-4-yl-4,5,6,7-tetrahydro-benzothiazol-2-yl)-benzamide] | 12 | 3.2
N#Cc1ccc(N2CCN(Cc3cccc(C(=O)Nc4nc5c(s4)C[C@@H](N4CCOCC4)CC5)c3)C2=O)cc1 [Compound 6, 3-[3-(4-Cyano-phenyl)-2-oxo-imidazolidin-1-ylmethyl]-N—((S)-6-morpholin-4-yl-4,5,6,7-tetrahydro-benzothiazol-2-yl)-benzamide] | 1.3 | 2
CN(C)[C@H]1CCc2nc(NC(=O)c3cccc(CN4CCN(c5ccc(C#N)cc5)C4=O)c3)sc2C1 [Compound 3, 3-[3-(4-Cyano-phenyl)-2-oxo-imidazolidin-1-ylmethyl]-N—((S)-6-dimethylamino-4,5,6,7-tetrahydro-benzothiazol-2-yl)-benzamide] | 0.67 | 2
CN(CCC#N)[C@H]1CCc2nc(NC(=O)c3cccc(Cn4cc(-c5ccc(C#N)cc5)nn4)c3)sc2C1 [Compound 32, N-{(S)-6-[(2-Cyano-ethyl)-methyl-amino]-4,5,6,7-tetrahydro-benzothiazol-2-yl}-3-[4-(4-cyano-phenyl)-[1,2,3]triazol-1-ylmethyl]-benzamide] | 2 | 2.9
N#Cc1ccc(-c2cn(Cc3cccc(C(=O)Nc4nc5c(s4)CC(N4CCC(F)(F)CC4)CC5)c3)nn2)cc1 (stereo not shown) [Compound 41, 3-[4-(4-Cyano-phenyl)-1,2,3-triazol-1-ylmethyl]-N-[6-(4,4-difluoro-piperidin-1-yl)-4,5,6,7-tetrahydro-benzothiazol-2-yl]-benzamide] | 5.8 | 7.1
N#Cc1ccc(-c2cn(Cc3cccc(C(=O)Nc4nc5c(s4)C[C@@H](NCCC(F)(F)F)CC5)c3)nn2)cc1 [Compound 22, 3-[4-(4-Cyano-phenyl)-[1,2,3]triazol-1-ylmethyl]-N—[(S)-6-(3,3,3-trifluoro-propylamino)-4,5,6,7-tetrahydro-benzothiazol-2-yl]-benzamide] | 1.1 | 2.2
CN1CCc2nc(NC(=O)c3cccc(CN4CCN(c5ccc(C#N)cc5)C4=O)c3)sc2C1 [Compound 1, 3-[3-(4-Cyano-phenyl)-2-oxo-imidazolidin-1-ylmethyl]-N-(5-methyl-4,5,6,7-tetrahydro-thiazolo[5,4-c]pyridin-2-yl)-benzamide] | 54 | 4.8
CN(CCC#N)[C@H]1CCc2nc(NC(=O)c3cccc(Cn4cc(-c5ccc(C#N)cc5)cn4)c3)sc2C1 [Compound 53, N-{(S)-6-[(2-Cyano-ethyl)-methyl-amino]-4,5,6,7-tetrahydro-benzothiazol-2-yl}-3-[4-(4-cyano-phenyl)-pyrazol-1-ylmethyl]-benzamide] |  | 1.9
CN(CCC(F)(F)F)[C@H]1CCc2nc(NC(=O)c3cccc(Cn4cc(-c5ccc(C#N)cc5)cn4)c3)sc2C1 [Compound 30, 3-[4-(4-Cyano-phenyl)-pyrazol-1-ylmethyl]-N-{(S)-6-[methyl-(3,3,3-trifluoro-propyl)-amino]-4,5,6,7-tetrahydro-benzothiazol-2-yl}-benzamide] | 7.3 | 2.1
C[C@@H]1CN(C2CCc3nc(NC(=O)c4cccc(Cn5cc(-c6ccc(C#N)cc6)cn5)c4)sc3C2)C[C@H](C)O1 (stereo partly drawn) [Compound 26, 3-[4-(4-Cyano-phenyl)-pyrazol-1-ylmethyl]-N-[6-((2R,6S)-2,6-dimethyl-morpholin-4-yl)-4,5,6,7-tetrahydro-benzothiazol-2-yl]-benzamide] | 3.9 | 4.3
N#Cc1ccc(-c2cn(Cc3cccc(C(=O)Nc4nc5c(s4)C[C@@H](N4CCCCC4)CC5)c3)nn2)cc1 [Compound 44, 3-[4-(4-Cyano-phenyl)-1,2,3-triazol-1-ylmethyl]-N—((S)-6-piperidin-1-yl-4,5,6,7-tetrahydro-benzothiazol-2-yl)-benzamide] | 0.53 | 2.4
COCCN(C)[C@H]1CCc2nc(NC(=O)c3cccc(Cn4cc(-c5ccc(C#N)cc5)nn4)c3)sc2C1 [Compound 49, 3-[4-(4-Cyano-phenyl)-[1,2,3]triazol-1-ylmethyl]-N-{(S)-6-[(2-methoxy-ethyl)-methyl-amino]-4,5,6,7-tetrahydro-benzothiazol-2-yl}-benzamide] | 0.73 | 1.7
COCCN[C@@H]1CCc2nc(NC(=O)c3cccc(Cn4cc(-c5ccc(C#N)cc5)cn4)c3)sc2C1 [Compound 57, 3-[4-(4-Cyano-phenyl)-pyrazol-1-ylmethyl]-N—[(R)-6-(2-methoxy-ethylamino)-4,5,6,7-tetrahydro-benzothiazol-2-yl]-benzamide] |  | 1.9
N#Cc1ccc(-c2cnn(Cc3cccc(C(=O)Nc4nc5c(s4)CC(NCC(F)F)CC5)c3)c2)cc1 (stereo not shown) [Compound 51, 3-[4-(4-Cyano-phenyl)-pyrazol-1-ylmethyl]-N-[6-(2,2-difluoro-ethylamino)-4,5,6,7-tetrahydro-benzothiazol-2-yl]-benzamide] |  | 1.8
COCCN[C@@H]1CCc2nc(NC(=O)c3cccc(Cn4cc(-c5ccc(C#N)cc5)nn4)c3)sc2C1 [Compound 65, 3-[4-(4-Cyano-phenyl)-[1,2,3]triazol-1-ylmethyl]-N—[(R)-6-(2-methoxy-ethylamino)-4,5,6,7-tetrahydro-benzothiazol-2-yl]-benzamide] |  | 1.9
N#Cc1ccc(-c2cn(Cc3cccc(C(=O)Nc4nc5c(s4)CC(NCC(F)F)CC5)c3)nn2)cc1 (stereo not shown) [Compound 52, 3-[4-(4-Cyano-phenyl)-[1,2,3]triazol-1-ylmethyl]-N-[6-(2,2-difluoro-ethylamino)-4,5,6,7-tetrahydro-benzothiazol-2-yl]-benzamide] |  | 9.4
N#Cc1ccc(-c2cnn(Cc3cccc(C(=O)Nc4nc5c(s4)CC(N4CCC(F)(F)C4)CC5)c3)c2)cc1 (stereo not shown) [Compound 73, 3-[4-(4-Cyano-phenyl)-pyrazol-1-ylmethyl]-N-[6-(3,3-difluoro-pyrrolidin-1-yl)-4,5,6,7-tetrahydro-benzothiazol-2-yl]-benzamide] |  | 8.5
N#Cc1ccc(-c2cn(Cc3cccc(C(=O)Nc4nc5c(s4)C[C@H](N)CC5)c3)nn2)cc1 [Compound 58, N—((R)-6-Amino-4,5,6,7-tetrahydro-benzothiazol-2-yl)-3-[4-(4-cyano-phenyl)-[1,2,3]triazol-1-ylmethyl]-benzamide] |  | 2.2
N#Cc1cccc(-c2ccnc(Cc3cccc(C(=O)Nc4nc5c(s4)C[C@@H](N4CCOCC4)CC5)c3)n2)c1 [Compound 36, 3-[4-(3-Cyano-phenyl)-pyrimidin-2-ylmethyl]-N—((S)-6-morpholin-4-yl-4,5,6,7-tetrahydro-benzothiazol-2-yl)-benzamide] |  | 9.9
COCCN(C)[C@@H]1CCc2nc(NC(=O)c3cccc(Cn4cc(-c5ccc(C#N)cc5)nn4)c3)sc2C1 [Compound 66, 3-[4-(4-Cyano-phenyl)-[1,2,3]triazol-1-ylmethyl]-N-{(R)-6-[(2-methoxy-ethyl)-methyl-amino]-4,5,6,7-tetrahydro-benzothiazol-2-yl}-benzamide] |  | 6.5
